Source: the CombiSolv-Exp solvation set (Vermeire and Green 2021)

Experiment: solvent given as SMILES

CC(C)CCC(C)C
Conditions	solvation free energy, 298 K [kcal/mol]
in Brc1ccccc1	-4.53
in C1CCCCC1	-5.02
in C1CCOC1	-4.85
in C1COCCO1	-4.04
in C=CCCCC	-4.95
in C=CCCCCCC	-4.85
in C=CCCCCCCCC	-4.75
in CC1COC(=O)O1	-2.64
in CC#N	-3.31
in CC(=O)N(C)C	-3.54
in CC(=O)O	-3.59
in CC(=O)c1ccccc1	-3.84
in CC(C)=O	-4.03
in CC(C)CC(C)(C)C	-4.84
in CC(C)CCCC(C)CCCC(C)CCCCC(C)CCCC(C)CCCC(C)C	-4.35
in CC(C)CCO	-4.21
in CC(C)O	-3.99
in CC(C)OC(C)C	-4.85
in CCBr	-4.97
in CCC#N	-3.76
in CCC(C)=O	-4.29
in CCCC#N	-4
in CCCC(=O)OCC	-4.52
in CCCC(C)=O	-4.38
in CCCCC	-5.01
in CCCCCC	-4.97
in CCCCCC(C)=O	-4.4
in CCCCCCC	-4.9
in CCCCCCCC	-4.83
in CCCCCCCCC	-4.79
in CCCCCCCCCC	-4.74
in CCCCCCCCCCCC	-4.63
in CCCCCCCCCCCCCCCC	-4.53
in CCCCCCCCO	-4.21
in CCCCCCOC(C)=O	-4.48
in CCCCO	-4.1
in CCCCOC(C)=O	-4.46
in CCCCOCCCC	-4.81
in CCCO	-4.07
in CCN(CC)CC	-4.89
in CCO	-3.92
in CCOC(C)=O	-4.31
in CCOCC	-4.91
in CCOCCOCCOCC	-4.23
in CCOc1ccccc1	-4.31
in CN1CCCC1=O	-3.42
in CN(C)C=O	-3.35
in CN(C)P(=O)(N(C)C)N(C)C	-3.84
in CNC=O	-2.97
in CO	-3.55
in COC(C)=O	-4.11
in COCCO	-3.43
in COc1ccccc1	-4.22
in CS(C)=O	-2.41
in Cc1ccc(C)cc1	-4.77
in Cc1ccccc1	-4.76
in Cc1ccccn1	-4.33
in ClC(Cl)(Cl)Cl	-5.01
in ClC(Cl)Cl	-4.88
in ClCCCl	-4.29
in ClCCl	-4.64
in Clc1ccccc1	-4.75
in FC(F)(F)C(F)(F)C(F)(F)C(F)(F)C(F)(F)C(F)(F)C(F)(F)C(F)(F)F	-3.22
in FC(F)(F)C(F)(F)C(F)(F)C(F)(F)C(F)(F)C(F)(F)F	-3.3
in Fc1ccccc1	-4.66
in ICI	-2.71
in N#Cc1ccccc1	-3.85
in Nc1ccccc1	-3.11
in O	2.78
in O=C1CCCCC1	-4.2
in O=C1CCCO1	-2.85
in OCc1ccccc1	-3.33
in S=C=S	-4.94
in c1ccccc1	-4.76
in c1ccncc1	-4.06

CCCCCCCCCCCCOC(=O)c1ccccc1C(=O)OCCCCCCCCCCCC
Conditions	solvation free energy, 298 K [kcal/mol]
in O	-5.92

CC1CO1 (configuration not stated)
Conditions	solvation free energy, 298 K [kcal/mol]
in CC=O	-3.7

Cc1cccc(N)c1
Conditions	solvation free energy, 298 K [kcal/mol]
in O	-5.69

CN(C)CCOC(c1ccccc1)c1ccccc1
Conditions	solvation free energy, 298 K [kcal/mol]
in O	-9.34

CC(=O)CC(C)C
Conditions	solvation free energy, 298 K [kcal/mol]
in C1COCCO1	-5.32
in CC(=O)N(C)C	-5.24
in CCCCCCCC	-4.34
in CCCCN(C=O)CCCC	-5.03
in CCOP(=O)(OCC)OCC	-4.94
in CN1CCCC1=O	-5.14
in CN1CCCCC1=O	-5.12
in CN1CCN(C)C1=O	-4.91
in CNC(C)=O	-4.82
in NC=O	-4.19
in O	-3.06
in O=CN1CCOCC1	-4.62
in OCCOCCO	-4.21

CCCCCC=O
Conditions	solvation free energy, 298 K [kcal/mol]
in CCCCCCCC	-4.76
in CCCCCCCCCCCCCCCC	-4.52
in CCCCCCCCO	-5.95
in NC=O	-4.02
in O	-2.74
in [2H]O[2H]	-2.75

COc1ccccc1N
Conditions	solvation free energy, 298 K [kcal/mol]
in O	-6.12

C=CC
Conditions	solvation free energy, 298 K [kcal/mol]
in C1CCC2CCCCC2C1	-1.43
in C1COCCO1	-1.36
in CC1COC(=O)O1	-0.97
in CC(C)(C)O	-1.35
in CC(C)CC(C)(C)C	-1.61
in CC(C)CCO	-1.31
in CC(C)CO	-1.3
in CC(C)O	-1.32
in CCC(C)(C)O	-1.39
in CCC(C)=O	-1.54
in CCC(C)CO	-1.3
in CCC(C)O	-1.32
in CCC(O)CC	-1.31
in CCCC(C)O	-1.31
in CCCCC	-1.79
in CCCCCC	-1.75
in CCCCCCC	-1.74
in CCCCCCCC	-1.71
in CCCCCCCCC	-1.7
in CCCCCCCCCC	-1.68
in CCCCCCCCCCCCCCCC	-1.32
in CCCCCCCCO	-1.25
in CCCCCO	-1.32
in CCCCO	-1.41
in CCCO	-1.35
in CCOC(C)=O	-1.51
in CN1CCCC1=O	-1.24
in CN(C)C=O	-1.3
in CN(C)P(=O)(N(C)C)N(C)C	-1.39
in CO	-1.3
in COCCOCCOCCOC	-1.06
in CS(C)=O	-0.78
in Cc1ccc(C)cc1	-1.58
in Cc1cccc(C)c1	-1.58
in Cc1ccccc1C	-1.56
in ClC(Cl)(Cl)Cl	-1.84
in Nc1ccccc1	-1.08
in O	1.22
in OCCCOCCCO	-0.76
in OCCO	-0.45
in OCc1ccccc1	-1.09
in c1ccccc1	-1.64

Clc1cc2c(cc1Cl)Oc1ccccc1O2
Conditions	solvation free energy, 298 K [kcal/mol]
in O	-3.56

Cc1cc(=O)n(-c2ccccc2)n1C
Conditions	solvation free energy, 298 K [kcal/mol]
in O	-13.3

CC(=O)N(C)C
Conditions	solvation free energy, 298 K [kcal/mol]
in C1CCCCC1	-4.97
in C=CCCCCCCC=C	-5.22
in CC(C)CC(C)(C)C	-5.19
in CCCCCCCCCCCCCCCC	-4.26
in O	-8.15
in [2H]O[2H]	-7.78
in c1ccccc1	-6.41

Cc1cc(NS(=O)(=O)c2ccc(N)cc2)nc(C)n1
Conditions	solvation free energy, 298 K [kcal/mol]
in O	-21.9

O=C(Oc1ccccc1)c1ccccc1C(=O)Oc1ccccc1
Conditions	solvation free energy, 298 K [kcal/mol]
in O	-11.6

CC(C)Cl
Conditions	solvation free energy, 298 K [kcal/mol]
in C=CCCCCCCCCCCCCCC	-2.78
in O	-0.23

CCC(C)C(=O)OC1CC(C)C=C2C=CC(C)C(CCC3CC(O)CC(=O)O3)C21 (configuration not stated)
Conditions	solvation free energy, 298 K [kcal/mol]
in CC(=O)OC(C)C	-24.9
in CC(=O)OCC(C)C	-24.8
in CC(C)=O	-25.7
in CCC(C)=O	-25.6
in CCC(C)OC(C)=O	-24.9
in CCCCCCCCO	-24.6
in CCCCCCO	-24.8
in CCCCCO	-24.9
in CCCCO	-25.2
in CCCCOC(C)=O	-24.9
in CCCO	-25.2
in CCCOC(C)=O	-25.1
in CCO	-25.1
in CCOC(C)=O	-25.1
in CO	-25.2
in COC(C)=O	-25.1

CCOc1ccc(C(=O)N(O)c2ccc(C)cc2)cc1
Conditions	solvation free energy, 298 K [kcal/mol]
in O	-12.4

COCc1ccc(C(=O)O)cc1
Conditions	solvation free energy, 298 K [kcal/mol]
in C=CCCCCCCCCCCCCCC	-8.27
in O	-9.89

CC(=O)OC1C2(C)CCC(C2)C1(C)C (configuration not stated)
Conditions	solvation free energy, 298 K [kcal/mol]
in O	-2.69

CCCCSP(=O)(O)SCCCC
Conditions	solvation free energy, 298 K [kcal/mol]
in O	-8.03

CCC(C)(O)C(C)C (configuration not stated)
Conditions	solvation free energy, 298 K [kcal/mol]
in CCCCCCCC	-5.4
in CCCCCCCCCC	-5.34

C=C1CCC23CC1C(C)(C)C2CCC3C (configuration not stated)
Conditions	solvation free energy, 298 K [kcal/mol]
in O	0.8

[N]=O
Conditions	solvation free energy, 298 K [kcal/mol]
in CC#N	0.63
in CCCCCC	0.47
in CCO	0.81
in CCOC(C)=O	0.55
in CCOCC	0.34
in CO	0.62
in Cc1cccc(C)c1	0.79
in Cc1ccccc1	0.76
in ClC(Cl)(Cl)Cl	0.62

Cc1ccc(C(C)C)cc1
Conditions	solvation free energy, 298 K [kcal/mol]
in COCCO	-5.72
in CS(C)=O	-5.55
in O	-0.67

CC(=O)C1COCCOCCOCCOCCOc2ccccc2O1 (configuration not stated)
Conditions	solvation free energy, 298 K [kcal/mol]
in Cc1cccc(C)c1	-19.2
in O	-17.8

Cc1ccc([N+](=O)[O-])cc1
Conditions	solvation free energy, 298 K [kcal/mol]
in O	-4.96

CCCN(CCC)c1c([N+](=O)[O-])cc(C(F)(F)F)cc1[N+](=O)[O-]
Conditions	solvation free energy, 298 K [kcal/mol]
in O	-3.25

O=C(O)c1cc(O)c(O)c(O)c1
Conditions	solvation free energy, 298 K [kcal/mol]
in CCO	-19.8

c1cc2ccc3cccc4ccc(c1)c2c34
Conditions	solvation free energy, 298 K [kcal/mol]
in Brc1ccccc1	-13.2
in C1CCOC1	-13.4
in C1COCCO1	-13
in CC(=O)N(C)C	-13.3
in CC(C)(C)O	-11.2
in CC(C)=O	-12.7
in CC(C)CC(C)(C)C	-11.3
in CC(C)CC(C)O	-11.4
in CC(C)CCO	-11.4
in CC(C)CO	-11.2
in CC(C)O	-11.5
in CC(C)OC(C)C	-12
in CC(O)COC(C)(C)C	-12.3
in CCC(C)(C)O	-11.5
in CCC(C)=O	-13
in CCC(C)O	-11.3
in CCCC(=O)OC	-12.7
in CCCC(C)CO	-11.5
in CCCC(C)O	-11.5
in CCCCC(CC)CO	-11.7
in CCCCCC	-11.5
in CCCCCCC	-11.6
in CCCCCCCC	-11.7
in CCCCCCCCC=CCCCCCCCC(=O)OCC(COC(=O)CCCCCCCC=CCCCCCCCC)OC(=O)CCCCCCCC=CCCCCCCCC	-12.3
in CCCCCCCCCC	-11.8
in CCCCCCCCO	-11.9
in CCCCCCCO	-11.8
in CCCCCCO	-11.8
in CCCCCO	-11.7
in CCCCCOC(C)=O	-12.7
in CCCCCl	-12.8
in CCCCO	-11.6
in CCCCOC(C)=O	-12.7
in CCCCOCCCC	-12.1
in CCCCOCCO	-12.4
in CCCO	-11.5
in CCCOCCO	-12.4
in CCO	-11.6
in CCOC(C)=O	-12.7
in CCOCC	-12.4
in CCOCCO	-12.5
in CN(C)C=O	-13.2
in CNC=O	-11.8
in CO	-11.2
in COC(C)(C)C	-12.2
in COC(C)=O	-12.6
in COC(C)CCO	-12.3
in COCCO	-12.2
in Cc1ccc(C)cc1	-12.8
in Cc1cccc(C)c1	-12.8
in Cc1ccccc1C	-12.9
in ClC(Cl)(Cl)Cl	-12.7
in ClC(Cl)Cl	-13.2
in ClCCCl	-13.2
in Fc1ccccc1	-12.9
in N#Cc1ccccc1	-13.1
in O	-4.77
in O=C1CCCCC1	-13.2

Cc1cccc2c(C)cccc12
Conditions	solvation free energy, 298 K [kcal/mol]
in CCCCCCCCC=CCCCCCCCC(=O)OCC(COC(=O)CCCCCCCC=CCCCCCCCC)OC(=O)CCCCCCCC=CCCCCCCCC	-9.3
in O	-2.78

Clc1ccc2c(c1)Oc1cc(Cl)c(Cl)c(Cl)c1O2
Conditions	solvation free energy, 298 K [kcal/mol]
in O	-3.84

CCCCCC(=O)CC(C)=O
Conditions	solvation free energy, 298 K [kcal/mol]
in O	-4.3

ClC1C(Cl)C(Cl)C(Cl)C(Cl)C1Cl (configuration not stated)
Conditions	solvation free energy, 298 K [kcal/mol]
in CCCCCCCCC=CCCCCCCCC(=O)OCC(COC(=O)CCCCCCCC=CCCCCCCCC)OC(=O)CCCCCCCC=CCCCCCCCC	-11.2
in CCCCCCCCO	-10.9

Oc1cccc2cccnc12
Conditions	solvation free energy, 298 K [kcal/mol]
in O	-6.06

CC(C)CCCO
Conditions	solvation free energy, 298 K [kcal/mol]
in CCCCCCCC	-4.84
in CCCCCCCCCC	-4.78
